In US6323235A, “Benzene-condensed heterocyclic derivatives and their uses” (priority 1995, dated 2001):

Legend:
[1] = tested on: platelet aggregation induced by TXA2 agonist U-46619; test: Platelet Aggregation-inhibition Action 1 (U-46619-induced, platelet-rich plasma); type: cell-based; settings: U-46619 1-4 μM final, PRP, compound added one minute before U-46619
Procedure: Platelet Aggregation-inhibition Action 1
(§1) Blood collected from medial cubital vein is centrifuged at 800 rmp for 10 minutes and the upper portion of the resultant is collected as platelet-rich plasma (PRP). The PRP is dividedly poured into small test tubes and a TXA2 agonist U-46619 is added thereto (final concentration: 1-4 μM) so as to induce platelet aggregation. The degree of platelet aggregation is measured in terms of change in turbidity by a platelet aggregation measuring apparatus (Hematoracer, NIKO BIOSCIENCE). The compound is added one minute before the addition of U-46619 and the concentration of the compound at which the aggregation is inhibited by 50% is calculated as IC50 value.

[2] = tested on: platelet aggregation induced by ADP; test: Platelet Aggregation-Inhibition Action 2 (ADP-induced, platelet-rich plasma); type: cell-based; settings: ADP 1-3 μM final, PRP, compound added one minute before ADP
Procedure: Platelet Aggregation-Inhibition Action 2
as §1, with “PRP).” for “(PRP).”, “ADP” for “a TXA2 agonist U-46619”, “1-3” for “1-4”, “Hematoracer,” for “(Hematoracer,”, “ADP” for “U-46619 and”

TXA2 receptor = target: T1, TXA2 receptor (Oryctolagus cuniculus, UniProt Q6WQI8); test: TXA2 Receptor Binding Test 1 ([3H]SQ29548, washed rabbit platelets); design: species or system New Zealand White rabbit; settings: [3H]SQ29548 3 nM, rabbit washed platelets 10 mg/ml, 25° C., 60 minutes
T1 sequence (Q6WQI8 1-233): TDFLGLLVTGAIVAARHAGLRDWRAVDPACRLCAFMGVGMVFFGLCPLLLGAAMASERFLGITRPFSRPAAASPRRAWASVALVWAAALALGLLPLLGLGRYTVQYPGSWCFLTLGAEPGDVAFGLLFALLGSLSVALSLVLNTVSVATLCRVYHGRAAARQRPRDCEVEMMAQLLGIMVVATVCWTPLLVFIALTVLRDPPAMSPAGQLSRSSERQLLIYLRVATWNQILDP
Procedure: TXA2 Receptor Binding Test 1
Blood from a New Zealand White rabbit is taken in a vessel containing ACD solution (prepared by dissolving 1.175 g of sodium citrate, 0.685 g of citric acid and 1 g of dextrose in 50 ml of distilled water) and centrifuged at 180×g for 10 minutes at room temperature to obtain platelet-rich plasma. The obtained platelet-rich plasma is centrifuged at […] at room temperature to precipitate platelets. The platelets are then suspended in 50 mM Tris-HCl buffer (pH 7.2, containing 0.154M of NaCl) and the suspension is centrifuged at 2800×g for 15 minutes at 4° C. These operations are repeated twice to prepare washed platelets and the concentration of the platelets are adjusted to a final concentration of 10 mg/ml (wet weight).
As the ligand of TXA2, tritium-labelled SQ29548 ([^3 H]SQ29548) is used. In the antagonism test, 20 μl of [^3 H]SQ29548 having a final concentration of 3 nM is added to 500 μl of a platelet suspension having a platelet concentration of 10 mg/ml and 2.6 μl of a solution of a test compound dissolved in an appropriate solvent is added thereto. After incubating the resulting mixture at 25° C. for 60 minutes, the mixture is filtered through a glass filter by the cell harvester method. After washing the filter with 50 mM Tris-HCl buffer (3×4 ml), the radioactivity of the filter is measured by a scintillation counter, thereby measuring the amount of the [^3 H]SQ29548 bound to platelets. In the saturation test, 20 μl of [^3 H]SQ29548 is added to a final concentration of 0.1-50 nM and 2.6 μl of BM13505 having a final concentration of 1 μM is added so as to check non-specific binding, followed by carrying out the binding test. The concentration of the test compound at which binding of [^3 H]SQ29548 is inhibited by 50% is determined as the IC50 value.
The results of the evaluation of the activities of the compounds of the present invention by this method are summarized d in Table 3.

IC50 [1] | IC50 [2] | IC50 (TXA2 receptor) | SMILES
88 nM | – | 18.6 nM | Cc1oc2c(OCC(=O)O)cccc2c1CCNS(=O)(=O)Cc1ccccc1 [Example 24, (3-(2-(benzylsulfonylamino)ethyl)-2-methylbenzofuran-7-yloxy)acetic acid]
140 nM | – | 4.79 nM | Cc1oc2c(OCC(=O)O)cccc2c1CCNS(=O)(=O)CCc1ccccc1 [Example 25, (3-(2-(2-phenylethylsulfonylamino)ethyl)-2-methylbenzofuran-7-yloxy)acetic acid]
1600 nM | – | 569 nM | Cc1oc2c(OCC(=O)O)cccc2c1CC[S+]([O-])CCc1ccccc1 (stereo not drawn) [Example 32, (3-(2-(2-phenylethylsulfinyl)ethyl)-2-methylbenzofuran-7-yloxy)acetic acid]
1100 nM | – | 91.9 nM | Cc1oc2c(OCC(=O)O)cccc2c1CCS(=O)(=O)CCc1ccccc1 [Example 33, (3-(2-(2-phenylethylsulfonyl)ethyl)-2-methylbenzofuran-7-yloxy)acetic acid]
4500 nM | 7800 nM | – | Cc1oc2c(OCC(=O)O)cccc2c1CCON=C(c1ccccc1)c1ccccc1 [Example 35, (3-(2-(diphenylmethyleneaminoxy)ethyl)-2-methylbenzofuran-7-yloxy)acetic acid]
4000 nM | – | 69.6 nM | O=C(O)COc1cccc2c(CCOC(c3ccccc3)c3ccccc3)coc12 [Example 43, (3-(2-(diphenylmethoxy)ethyl)benzofuran-7-yloxy)acetate]
– | 8200 nM | – | O=C(O)COc1cccc2c(COCC(c3ccccc3)c3ccccc3)coc12 [Example 49, (3-((2,2-diphenylethoxy)methyl)benzofuran-7-yloxy)acetic acid]
– | – | 2020 nM | O=C(O)COc1cccc2c(COC(Cc3ccccc3)Cc3ccccc3)coc12 [Example 53, (3-((1-benzyl-2-phenylethoxy)methyl)benzofuran-7-yloxy)acetic acid]
510 nM | 730 nM | – | O=C(O)COc1cccc2c(CCSCC(c3ccccc3)c3ccccc3)coc12 [Example 88, (3-(2-(2,2-diphenylethylthio)ethyl)benzofuran-7-yloxy)acetic acid]
710 nM | – | – | O=C(O)COc1cccc2c(COCC=C(c3ccccc3)c3ccccc3)coc12 [Example 94, (3-((3,3-diphenyl-2-propenyloxy)methyl)benzofuran-7-yloxy)acetic acid]
1600 nM | 3400 nM | – | C[C@H](COC(c1ccccc1)c1ccccc1)OCc1coc2c(OCC(=O)O)cccc12 [Example 97, (R)-(3-((2-(diphenylmethoxy)-1-methylethoxy)methyl)benzofuran-7-yloxy)acetic acid]

Further lines, the compound ahead of its results:

SMILES | IC50 [1] | IC50 [2] | IC50 (TXA2 receptor)
O=C(O)COc1cccc2c(CNS(=O)(=O)CCOc3ccccc3)coc12 [Example 4] | 1100 nM | – | –
O=C(O)COc1cccc2c(CNS(=O)(=O)CCc3ccccc3)coc12 [Example 8, (3-(((2-phenylethyl)sulfonylamino)methyl)benzofuran-7-yloxy)acetic acid] | 1000 nM | 305000 nM | –
O=C(O)COc1cccc2c(CNS(=O)(=O)CCCc3ccccc3)coc12 [Example 9, (3-((3-phenylpropylsulfonylamino)methyl)benzofuran-7-yloxy)acetic acid] | 300 nM | – | 4.46 nM
O=C(O)COc1cccc2c(CNS(=O)(=O)c3ccc4ccccc4c3)coc12 [Example 13] | 7200 nM | – | 29.2 nM
Cc1oc2c(OCC(=O)O)cccc2c1CNS(=O)(=O)CCCc1ccccc1 [Example 17, (3-(((3-phenylpropyl)sulfonylamino)methyl)-2-methylbenzofuran-7-yloxy)acetic acid] | 140 nM | – | 1.92 nM
CC(C)c1oc2c(OCC(=O)O)cccc2c1CNS(=O)(=O)CCc1ccccc1 [Example 19, (3-(((2-phenylethyl)sulfonylamino)methyl)-2-isopropylbenzofuran-7-yloxy)acetic acid] | 1400 nM | – | 788 nM
O=C(O)COc1cccc2c(CCOCc3ccc(-c4ccccc4)cc3)coc12 [Example 46, (3-(2-(4-phenylbenzyloxy)ethyl)benzofuran-7-yloxy)acetic acid] | – | – | 596 nM
O=C(O)COc1cccc2c(CCOCC(=O)c3ccccc3)coc12 [Example 47, (3-(2-(2-oxo-2-phenylethoxy)ethyl)benzofuran-7-yloxy)acetic acid] | – | – | 3670 nM
C[C@@H](COCc1coc2c(OCC(=O)O)cccc12)c1ccccc1 [Example 51, (R)-(3-((2-phenylpropyloxy)methyl)benzofuran-7-yloxy)acetic acid] | – | – | 229 nM
O=C(O)COc1cccc2c(COCCOC(c3ccccc3)c3ccccc3)coc12 [Example 59, (3-((2-(diphenylmethoxy)ethoxy)methyl)benzofuran-7-yloxy)acetic acid] | 330 nM | 600 nM | –
Cc1oc2c(OCC(=O)O)cccc2c1CCSC(c1ccccc1)c1ccccc1 [Example 81, (3-(2-(diphenylmethylthio)ethyl)-2-methylbenzofuran-7-yloxy)acetic acid] | 640 nM | 4500 nM | –
O=C(O)COc1cccc2c(CCSC(c3ccccc3)c3ccccc3)c(CO)oc12 [Example 83, (2-hydroxymethyl-3-(2-(diphenylmethylthio)ethyl)benzofuran-7-yloxy)acetic acid] | 460 nM | 3300 nM | –
O=C(O)COc1cccc2c(CCSC(c3ccccc3)c3ccccc3)c(CCO)oc12 [Example 85] | 620 nM | 750 nM | –
O=C(O)COc1cccc2c(CCCSC(c3ccccc3)c3ccccc3)coc12 [Example 91, (3-(3,3-diphenylmethylthiopropyl)benzofuran-7-yloxy)acetic acid] | – | 1900 nM | –
O=C(O)COc1cccc2c(CC(O)CCC(c3ccccc3)c3ccccc3)coc12 (stereo not drawn) [Example 101, (3-(2-hydroxy-5,5-diphenylpentyl)benzofuran-7-yloxy)acetic acid] | 1500 nM | 1800 nM | –
Cc1ccc(S(=O)(=O)NCCn2ccc3c(OCC(=O)O)cccc32)cc1 [Example 103] | 1300 nM | – | 3.09 nM
O=C(O)COc1cccc2c1ccn2CCOCC(c1ccccc1)c1ccccc1 [Example 109, (1-(2-(2,2-diphenylethoxy)ethyl)indole-4-yloxy)acetic acid] | – | 27900 nM | –
O=C(O)COc1cccc2c1ccn2CCSC(c1ccccc1)c1ccccc1 [Example 112, (1-(2-(diphenylmethylthio)ethyl)indole-4-yloxy)acetate] | 840 nM | 4500 nM | –
O=C(O)COc1cccc2c1CCN2CCOCC(c1ccccc1)c1ccccc1 [Example 122, (1-(2-(2,2-diphenylethoxy)ethyl)indoline-4-yloxy)acetic acid] | 1400 nM | 2700 nM | –
O=C(O)COc1cccc2c1CCN2CCSC(c1ccccc1)c1ccccc1 [Example 125, (1-(2-(diphenylmethylthio)ethyl)indoline-4-yloxy)acetic acid] | 720 nM | 3100 nM | –
O=C(O)COc1cccc2cc(COCCOC(c3ccccc3)c3ccccc3)oc12 [Example 130, (2-(2-diphenylmethoxyethoxymethyl)benzofuran-7-yloxy)acetic acid] | 18000 nM | – | –
